{
  "source": "ChEMBL document CHEMBL1268954",
  "about": "“Toward the development of innovative bifunctional agents to induce differentiation and to promote apoptosis in leukemia: clinical candidates and perspectives” (J Med Chem, 2010)",
  "key": {"[1]": {"assay": "Inhibition of FTase"}, "[2]": {"assay": "Selectivity ratio of IC50 for cathepsin to IC50 for proteasome"}, "[3]": {"assay": "Inhibition of proteasome", "assay_type": "subcellular"}, "Cathepsin G [4]": {"target": "T1, Cathepsin G (Homo sapiens, UniProt P08311)", "T1 sequence (P08311 whole entry)": "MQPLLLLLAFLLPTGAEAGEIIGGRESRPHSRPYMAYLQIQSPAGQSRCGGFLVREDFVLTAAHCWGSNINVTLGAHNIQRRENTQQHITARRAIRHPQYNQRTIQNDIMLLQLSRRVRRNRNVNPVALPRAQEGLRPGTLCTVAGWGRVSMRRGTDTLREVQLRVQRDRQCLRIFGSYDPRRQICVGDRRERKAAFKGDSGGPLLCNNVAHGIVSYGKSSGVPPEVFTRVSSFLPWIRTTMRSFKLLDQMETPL", "assay": "Inhibition of cathepsin G in human MOLT4 cells", "assay_type": "cell-based, MOLT-4"}, "Cathepsin G [5]": {"target": "T1, Cathepsin G", "assay": "Inhibition of cathepsin G"}, "[6]": {"assay": "Oral bioavailability in mouse", "assay_type": "ADME, organism-based", "settings": "in vivo"}, "[7]": {"assay": "Oral bioavailability in dog", "assay_type": "ADME, organism-based, Canis lupus familiaris", "settings": "in vivo"}, "[8]": {"assay": "Oral bioavailability in rat", "assay_type": "ADME, organism-based", "settings": "in vivo"}, "[9]": {"assay": "Induction of apoptosis in human CLL cells", "assay_type": "functional, cell-based"}, "[10]": {"assay": "Aqueous solubility of the compound", "assay_type": "physicochemical", "settings": "aqueous medium"}, "[11]": {"target": "Apoptosis regulator Bcl-2 (Homo sapiens, UniProt P10415)", "sequence (P10415 whole entry)": "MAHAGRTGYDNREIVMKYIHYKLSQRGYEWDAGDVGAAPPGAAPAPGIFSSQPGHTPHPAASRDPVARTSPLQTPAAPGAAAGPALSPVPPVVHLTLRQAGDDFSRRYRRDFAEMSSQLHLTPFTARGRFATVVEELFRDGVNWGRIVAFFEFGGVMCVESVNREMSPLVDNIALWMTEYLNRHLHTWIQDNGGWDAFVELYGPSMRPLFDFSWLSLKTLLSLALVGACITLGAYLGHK", "assay": "Binding affinity to BCl2"}},
  "data": [
    {"smiles": "Cn1cncc1[C@@](N)(c1ccc(Cl)cc1)c1ccc2c(c1)c(-c1cccc(Cl)c1)cc(=O)n2C", "note": "[TIPIFARNIB]", "values": [
      {"measurement": "IC50", "setting": "[1]", "value": 0.6, "unit": "nM"}
    ]},
    {"smiles": "CC(C)C[C@H](NC(=O)[C@H](Cc1ccccc1)NC(=O)c1cnccn1)B(O)O", "note": "[BORTEZOMIB]", "values": [
      {"measurement": "Ratio IC50", "setting": "[2]", "value": 200000},
      {"measurement": "IC50", "setting": "[3]", "value": 0.6, "unit": "nM"}
    ]},
    {"smiles": "CC(C)C[C@H](NC(=O)[C@@H](NC(=O)c1cccc(-c2ccccc2)n1)[C@@H](C)O)B(O)O", "note": "[DELANZOMIB]", "values": [
      {"measurement": "EC50", "setting": "Cathepsin G [4]", "value": 13.5, "unit": "nM"},
      {"measurement": "IC50", "setting": "Cathepsin G [5]", "value": 13.7, "unit": "nM"}
    ]},
    {"smiles": "COC[C@H](NC(=O)c1cnc(C)s1)C(=O)N[C@@H](COC)C(=O)N[C@@H](Cc1ccccc1)C(=O)[C@]1(C)CO1", "values": [
      {"measurement": "bioavailability", "setting": "[6]", "value": 17, "unit": "%"},
      {"measurement": "bioavailability", "setting": "[7]", "value": 39, "unit": "%"},
      {"measurement": "bioavailability", "setting": "[8]", "value": 21, "unit": "%"}
    ]},
    {"smiles": "CN(C)CC[C@H](CSc1ccccc1)Nc1ccc(S(=O)(=O)NC(=O)c2ccc(N3CCN(Cc4ccccc4-c4ccc(Cl)cc4)CC3)cc2)cc1[N+](=O)[O-]", "note": "[ABT 737]", "values": [
      {"measurement": "EC50", "setting": "[9]", "value": 4.5, "unit": "nM"},
      {"measurement": "solubility", "setting": "[10]", "value": "< 1", "unit": "µg/mL"}
    ]},
    {"smiles": "Cn1cncc1[C@](N)(c1ccc(Cl)cc1)c1ccc2c(c1)c(-c1cccc(Cl)c1)cc(=O)n2C", "note": "[(S)-TIPIFARNIB]", "values": [
      {"measurement": "EC50", "setting": "[1]", "value": 1.8, "unit": "nM"}
    ]},
    {"smiles": "CN(C)CC[C@H](CSc1ccccc1)Nc1ccc(S(=O)(=O)NC(=O)c2ccc(N3CCC(C)(C)CC3)cc2)cc1[N+](=O)[O-]", "values": [
      {"measurement": "Ki", "setting": "[11]", "value": 62, "unit": "nM"}
    ]}
  ]
}
